The results in this text go back to patent publication US7741283B2, “Compositions and methods for inhibiting cell proliferation” (St. Louis University, priority 2003, dated 2010).

Where a SMILES comes first, the peptide text is derived from it. The star is where a group is joined. Cbz = O=C(OCc1ccccc1)*

The subject of one test is IRS-2. Description: 32P metabolic labeling and immunoprecipitation of IRS-2, Mv1Lu cells. The format is cell-based, mink. The note with it: for Effect of proteolysis inhibitors on IGFBP-3-induced mobility change of IRS-2: Mv1Lu, 1 hr prior to and during IGFBP-3 treatment.
Test [1] concerns the target T1, acidic pH binding sites (Mus musculus, UniProt P14824).
T1 sequence (P14824 2-673): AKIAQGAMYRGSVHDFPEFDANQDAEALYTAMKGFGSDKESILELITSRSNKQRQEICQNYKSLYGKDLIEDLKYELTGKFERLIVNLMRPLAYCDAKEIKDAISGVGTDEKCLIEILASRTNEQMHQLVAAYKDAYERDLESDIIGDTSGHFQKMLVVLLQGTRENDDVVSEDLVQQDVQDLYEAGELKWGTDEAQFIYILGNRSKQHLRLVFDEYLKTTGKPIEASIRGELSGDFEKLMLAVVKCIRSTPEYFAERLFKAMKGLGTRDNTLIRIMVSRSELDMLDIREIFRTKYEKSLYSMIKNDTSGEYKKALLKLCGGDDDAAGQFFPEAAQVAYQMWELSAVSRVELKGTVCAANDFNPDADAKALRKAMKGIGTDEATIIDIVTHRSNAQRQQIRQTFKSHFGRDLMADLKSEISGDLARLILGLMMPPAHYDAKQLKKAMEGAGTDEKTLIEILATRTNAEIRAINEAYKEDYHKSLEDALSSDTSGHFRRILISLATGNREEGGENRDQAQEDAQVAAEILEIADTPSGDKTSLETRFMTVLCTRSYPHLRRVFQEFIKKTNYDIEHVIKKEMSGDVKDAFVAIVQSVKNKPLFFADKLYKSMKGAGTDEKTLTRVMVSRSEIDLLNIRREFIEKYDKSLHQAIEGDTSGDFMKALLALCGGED
Nature of the test: Specific binding of 125I-ligands to MEF cells at acidic pH. The conditions noted are these: for Inhibition of ^125I-α2M* binding to cells: MEF cells, pH 5.5, verapamil and W-5 at 100 μM; for Specific binding of ^125I-α2M*: 10 μM protein, pH 5.5, MEF.

The test system of test [2] is Mv1Lu cells. Nature of the test: Internalization and degradation of cell surface-bound 125I-TGF-β1 or 125I-α2M*, Mv1Lu cells. In kind it is cell-based, mink. The conditions noted are these: 10 μM, pH 7.4, 1 hr at 37° C. As for the experimental part:
After 1 hr at 37° C., the medium was collected and precipitated with 10% trichloroacetic acid (TCA). The TCA-soluble radioactive material in the medium represented the cellular degradation products of 125I-TGF-β1 or 125I-α2M*. The cells were then treated with trypsin (5 mg/ml), maintained for 20 min at 0° C. and centrifuged. The radioactivity in the supernate and cell pellets represented cell surface-bound and internalized 125I-TGF-β1 or 125I-α2M*, respectively. The experiments were performed in quadruplicate.
After 2.5 hr, cells were washed, then warmed to 37° C.

Test [3] deals with T2, LRP-1 (Mus musculus, UniProt Q91ZX7).
T2 construct: endogenous in cells; host or cells: MEF (mouse embryonic fibroblasts)
T2 sequence (Q91ZX7 20-4545): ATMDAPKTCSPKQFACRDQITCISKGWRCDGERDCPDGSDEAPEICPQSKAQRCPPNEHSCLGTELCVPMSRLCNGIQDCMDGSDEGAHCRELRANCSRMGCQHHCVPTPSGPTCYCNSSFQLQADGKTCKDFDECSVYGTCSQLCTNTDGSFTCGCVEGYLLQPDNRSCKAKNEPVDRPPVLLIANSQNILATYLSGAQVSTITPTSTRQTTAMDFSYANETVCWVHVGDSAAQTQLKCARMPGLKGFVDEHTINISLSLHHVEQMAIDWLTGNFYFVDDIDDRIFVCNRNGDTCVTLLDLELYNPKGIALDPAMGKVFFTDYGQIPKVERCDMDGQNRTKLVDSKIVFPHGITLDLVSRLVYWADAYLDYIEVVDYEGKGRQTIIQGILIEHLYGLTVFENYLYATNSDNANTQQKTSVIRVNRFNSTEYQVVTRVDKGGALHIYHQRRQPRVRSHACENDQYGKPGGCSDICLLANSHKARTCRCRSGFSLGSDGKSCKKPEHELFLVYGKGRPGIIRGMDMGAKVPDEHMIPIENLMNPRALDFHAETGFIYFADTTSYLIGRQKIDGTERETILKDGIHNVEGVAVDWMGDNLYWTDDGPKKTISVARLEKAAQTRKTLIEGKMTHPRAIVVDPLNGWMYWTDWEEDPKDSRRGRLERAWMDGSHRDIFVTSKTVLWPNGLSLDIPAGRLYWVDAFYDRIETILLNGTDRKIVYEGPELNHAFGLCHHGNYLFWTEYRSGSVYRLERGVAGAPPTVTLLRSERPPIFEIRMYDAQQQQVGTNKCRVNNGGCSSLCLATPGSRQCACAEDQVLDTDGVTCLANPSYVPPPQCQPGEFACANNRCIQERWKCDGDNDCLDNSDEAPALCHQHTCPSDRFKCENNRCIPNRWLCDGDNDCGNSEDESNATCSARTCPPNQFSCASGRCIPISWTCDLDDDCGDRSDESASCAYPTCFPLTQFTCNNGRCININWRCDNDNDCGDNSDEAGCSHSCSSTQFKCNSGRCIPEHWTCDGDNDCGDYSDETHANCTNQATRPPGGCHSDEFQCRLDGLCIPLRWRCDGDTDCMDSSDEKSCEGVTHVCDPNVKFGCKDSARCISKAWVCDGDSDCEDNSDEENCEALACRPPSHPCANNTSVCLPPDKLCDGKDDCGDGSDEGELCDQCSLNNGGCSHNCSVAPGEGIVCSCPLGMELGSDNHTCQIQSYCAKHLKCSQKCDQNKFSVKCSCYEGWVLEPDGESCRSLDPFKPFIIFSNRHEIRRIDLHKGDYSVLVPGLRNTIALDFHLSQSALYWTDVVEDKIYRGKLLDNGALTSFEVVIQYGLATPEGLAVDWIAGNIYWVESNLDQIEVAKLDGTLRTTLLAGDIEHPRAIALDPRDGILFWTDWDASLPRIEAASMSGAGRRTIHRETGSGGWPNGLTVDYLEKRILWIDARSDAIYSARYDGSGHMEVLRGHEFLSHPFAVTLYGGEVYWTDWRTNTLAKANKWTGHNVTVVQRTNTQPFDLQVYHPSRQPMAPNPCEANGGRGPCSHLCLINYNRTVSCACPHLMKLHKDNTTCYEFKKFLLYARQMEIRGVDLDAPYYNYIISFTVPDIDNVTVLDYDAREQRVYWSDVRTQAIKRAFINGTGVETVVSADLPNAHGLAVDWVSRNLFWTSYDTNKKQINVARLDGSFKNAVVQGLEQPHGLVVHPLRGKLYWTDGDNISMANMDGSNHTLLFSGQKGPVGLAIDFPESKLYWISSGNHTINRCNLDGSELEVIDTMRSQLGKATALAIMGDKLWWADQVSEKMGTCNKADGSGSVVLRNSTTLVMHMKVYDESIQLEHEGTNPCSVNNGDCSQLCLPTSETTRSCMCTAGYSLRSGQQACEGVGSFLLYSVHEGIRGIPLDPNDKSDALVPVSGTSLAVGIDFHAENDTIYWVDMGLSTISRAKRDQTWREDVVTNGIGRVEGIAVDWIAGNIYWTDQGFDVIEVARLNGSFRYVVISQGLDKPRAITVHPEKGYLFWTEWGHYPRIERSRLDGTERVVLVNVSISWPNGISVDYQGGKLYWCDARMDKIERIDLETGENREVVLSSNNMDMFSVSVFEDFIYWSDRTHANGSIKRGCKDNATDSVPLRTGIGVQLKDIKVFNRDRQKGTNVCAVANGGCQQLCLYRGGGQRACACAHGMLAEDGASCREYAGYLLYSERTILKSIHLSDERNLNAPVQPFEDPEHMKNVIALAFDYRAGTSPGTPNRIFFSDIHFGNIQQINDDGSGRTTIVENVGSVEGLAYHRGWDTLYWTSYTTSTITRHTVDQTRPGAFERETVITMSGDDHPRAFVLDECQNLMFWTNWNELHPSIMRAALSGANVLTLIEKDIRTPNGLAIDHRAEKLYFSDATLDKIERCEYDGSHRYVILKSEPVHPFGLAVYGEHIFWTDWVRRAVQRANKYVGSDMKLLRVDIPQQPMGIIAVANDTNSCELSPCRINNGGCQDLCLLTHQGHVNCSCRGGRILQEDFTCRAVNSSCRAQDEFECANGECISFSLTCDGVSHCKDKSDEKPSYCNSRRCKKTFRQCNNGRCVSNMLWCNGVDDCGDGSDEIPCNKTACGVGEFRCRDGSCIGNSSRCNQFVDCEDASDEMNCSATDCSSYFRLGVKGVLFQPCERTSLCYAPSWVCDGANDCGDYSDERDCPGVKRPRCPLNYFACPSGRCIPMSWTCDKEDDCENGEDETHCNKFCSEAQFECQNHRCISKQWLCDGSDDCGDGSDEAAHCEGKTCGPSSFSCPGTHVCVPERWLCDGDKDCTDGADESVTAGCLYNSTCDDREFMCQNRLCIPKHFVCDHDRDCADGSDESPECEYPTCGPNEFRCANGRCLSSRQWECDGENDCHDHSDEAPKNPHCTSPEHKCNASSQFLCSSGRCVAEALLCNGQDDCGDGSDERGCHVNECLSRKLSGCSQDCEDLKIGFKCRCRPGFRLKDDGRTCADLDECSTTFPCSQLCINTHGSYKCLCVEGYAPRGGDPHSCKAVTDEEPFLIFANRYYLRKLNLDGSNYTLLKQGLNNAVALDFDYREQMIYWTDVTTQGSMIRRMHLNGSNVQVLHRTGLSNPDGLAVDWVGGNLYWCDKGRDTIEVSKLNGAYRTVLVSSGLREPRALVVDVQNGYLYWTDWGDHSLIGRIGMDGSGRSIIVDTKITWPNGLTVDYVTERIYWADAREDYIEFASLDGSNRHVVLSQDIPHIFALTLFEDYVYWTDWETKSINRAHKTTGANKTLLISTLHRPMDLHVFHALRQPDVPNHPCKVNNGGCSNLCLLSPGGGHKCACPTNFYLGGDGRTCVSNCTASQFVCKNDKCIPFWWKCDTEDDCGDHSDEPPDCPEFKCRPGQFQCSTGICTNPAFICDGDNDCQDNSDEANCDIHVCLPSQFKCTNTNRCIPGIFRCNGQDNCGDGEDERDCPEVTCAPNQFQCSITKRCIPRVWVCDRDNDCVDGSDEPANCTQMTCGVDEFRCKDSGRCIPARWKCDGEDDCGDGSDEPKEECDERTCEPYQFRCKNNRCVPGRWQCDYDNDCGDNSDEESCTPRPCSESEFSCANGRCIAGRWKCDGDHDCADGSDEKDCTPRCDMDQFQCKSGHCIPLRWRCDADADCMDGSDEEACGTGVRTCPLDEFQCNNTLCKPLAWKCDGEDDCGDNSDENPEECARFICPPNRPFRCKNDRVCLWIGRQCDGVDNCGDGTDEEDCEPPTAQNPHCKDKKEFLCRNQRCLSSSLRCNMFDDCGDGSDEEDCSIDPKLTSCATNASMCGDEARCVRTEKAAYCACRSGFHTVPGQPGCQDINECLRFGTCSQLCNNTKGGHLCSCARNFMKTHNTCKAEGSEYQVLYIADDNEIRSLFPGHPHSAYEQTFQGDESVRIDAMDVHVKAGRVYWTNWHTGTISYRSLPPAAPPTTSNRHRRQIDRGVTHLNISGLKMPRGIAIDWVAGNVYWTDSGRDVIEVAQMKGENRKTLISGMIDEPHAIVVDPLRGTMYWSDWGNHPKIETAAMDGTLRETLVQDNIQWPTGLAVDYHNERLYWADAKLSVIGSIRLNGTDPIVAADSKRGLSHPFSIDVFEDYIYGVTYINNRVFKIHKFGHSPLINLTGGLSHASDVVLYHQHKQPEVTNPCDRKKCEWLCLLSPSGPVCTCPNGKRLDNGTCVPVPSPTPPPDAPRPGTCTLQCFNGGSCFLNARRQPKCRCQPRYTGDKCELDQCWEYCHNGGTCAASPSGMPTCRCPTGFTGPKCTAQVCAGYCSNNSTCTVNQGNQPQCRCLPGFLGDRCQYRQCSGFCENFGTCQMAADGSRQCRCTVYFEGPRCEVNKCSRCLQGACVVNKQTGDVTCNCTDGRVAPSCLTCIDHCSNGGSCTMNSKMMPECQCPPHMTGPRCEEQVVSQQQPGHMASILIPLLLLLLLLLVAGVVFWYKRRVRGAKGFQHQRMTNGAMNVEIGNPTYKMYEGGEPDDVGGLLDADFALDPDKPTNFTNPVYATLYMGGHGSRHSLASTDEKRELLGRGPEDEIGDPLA
Description: 125I-α2M* binding to MEF cells at pH 7.4. The note with it: for ^125I-α2M* binding: 10 μM protein, pH 7.4, MEF.

For test [4], the target named is acidic pH binding sites (Neogale vison, UniProt A0A8C7BSJ2). Description: Specific binding of 125I-ligands to Mv1Lu cells at acidic pH. On the set-up: species or system mink. The conditions noted are these: for Specific binding of ^125I-α2M*: 10 μM protein, pH 5.5, Mv1Lu.
acidic pH binding sites (Neogale vison, UniProt A0A8C7BSJ2), sequence (A0A8C7BSJ2 entry or part of it): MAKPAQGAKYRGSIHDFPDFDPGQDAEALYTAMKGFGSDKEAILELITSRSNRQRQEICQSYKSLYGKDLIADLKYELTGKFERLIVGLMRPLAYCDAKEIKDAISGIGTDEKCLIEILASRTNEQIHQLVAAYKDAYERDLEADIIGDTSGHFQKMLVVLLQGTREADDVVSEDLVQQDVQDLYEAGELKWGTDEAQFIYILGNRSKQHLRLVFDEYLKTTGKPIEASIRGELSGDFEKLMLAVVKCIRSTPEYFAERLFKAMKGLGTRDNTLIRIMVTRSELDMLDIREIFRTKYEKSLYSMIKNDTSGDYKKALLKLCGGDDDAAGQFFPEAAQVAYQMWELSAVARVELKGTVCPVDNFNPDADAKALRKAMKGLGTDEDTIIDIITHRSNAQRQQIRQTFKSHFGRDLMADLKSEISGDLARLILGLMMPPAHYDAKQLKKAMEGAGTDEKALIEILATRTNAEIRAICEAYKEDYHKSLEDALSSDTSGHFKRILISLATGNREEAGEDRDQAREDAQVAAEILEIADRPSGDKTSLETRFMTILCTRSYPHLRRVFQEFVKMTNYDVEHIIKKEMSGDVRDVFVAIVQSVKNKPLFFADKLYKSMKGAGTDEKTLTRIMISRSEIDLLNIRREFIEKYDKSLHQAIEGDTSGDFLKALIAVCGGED
Test [5] deals with LRP-1. Description: 125I-α2M* binding to Mv1Lu cells at pH 7.4. Also noted: species or system mink. The conditions noted are these: for ^125I-α2M* binding: 10 μM protein, pH 7.4, Mv1Lu; for ^125I-α2M* binding to LRP-1: 10 μg/ml, neutral pH, Mv1Lu cells.
Test [6] addresses T1, acidic pH binding sites. Description: Specific binding of 125I-ligands to PEA-13 cells at acidic pH. Also noted: endogenous in cells; host or cells: PEA-13 (LRP-1-deficient mouse embryonic fibroblasts). The note with it: for Specific binding of ^125I-α2M*: 10 μM protein, pH 5.5, PEA-13.
Test [7] has as its system Mv1Lu cells. Description: [methyl-3H] thymidine incorporation (DNA synthesis), Mv1Lu cells. In kind it is cell-based, mink. The conditions noted are these: insulin 10 nM or cyclic RGD peptide 0.01 μg/ml alone. (Uptake of a labelled nucleoside into DNA is a usual measure of proliferation.)

On to `CC(C)C[C@@H](C=O)NC(=O)[C@H](CC(C)C)NC(=O)[C@H](CC(C)C)NC(=O)OCc1ccccc1` [MG-132, reference compound] (Cbz-Leu-Leu-Leu-aldehyde), for which the “Effect of proteolysis inhibitors on IGFBP-3-induced mobility change of IRS-2” value in the test with IRS-2 is reported as “did not affect”.

`NCCCCCCNS(=O)(=O)c1cccc2ccccc12` [W-5, reference compound]: at acidic pH binding sites [1], the “Inhibition of ^125I-α2M* binding to cells” value (“Inhibition … to cells” below) is “inactive”.

Turning to `NCCCCCCNS(=O)(=O)c1cccc2c(Cl)cccc12` [W-7, reference compound], the “Inhibition … to cells” value on acidic pH binding sites [1] is “less effective inhibitors”.

On to `CSCC[C@@H](C=O)NC(=O)[C@H](CC(C)C)NC(=O)[C@H](CC(C)C)NC(C)=O` [calpain inhibitor II, reference compound] (Ac-Leu-Leu-Met-aldehyde), for which, in the test on IRS-2, the “Effect of proteolysis inhibitors on IGFBP-3-induced mobility change of IRS-2” value was “did not affect”.

With `COC[C@@H]([C@H](O)[C@H](O)C(=O)NCC[C@H](C)c1nc(/C=C/C[C@@H]2O[C@]3(C[C@@H](O)[C@@H]2C)O[C@H]([C@H](C[C@H](O)[C@H](C)[C@H](O)[C@H](C)/C=C(C)/C(C)=C/C=C/C(C)=C\C#N)OC)[C@H](OP(=O)(O)O)C3(C)C)co1)N(C)C` [calyculin A, reference compound], the “Effect of phosphatase inhibitors on IGFBP-3-induced specific dephosphorylation / mobility change of IRS-2” value in the test on IRS-2 is reported as “did not appear to affect”.

As for `CC1(C(=O)O)C2CCC(O2)C1(C)C(=O)O` (centres unmarked) [cantharidic acid, reference compound], the “Effect of phosphatase inhibitors on IGFBP-3-induced specific dephosphorylation / mobility change of IRS-2” value with IRS-2 was “did not appear to affect”.

For the compound `OCCN1CCN(CCCN2c3ccccc3Sc3ccc(C(F)(F)F)cc32)CC1` [fluphenazine], the “Degradation of cell surface-bound ^125I-TGF-β1 or ^125I-α2M*” value with Mv1Lu cells [2] is “completely inhibits”.

On to `CN(C)c1cccc2c(S(=O)(=O)NCCCCCN)cccc12` [monodansylcadaverine, reference compound], for which the “Inhibition … to cells” value at acidic pH binding sites [1] is “less effective inhibitors”.

`C=C1[C@@H](O)[C@@H]2O[C@]3(CC[C@H](/C=C/[C@@H](C)[C@@H]4CC(C)=C[C@@]5(O[C@H](C[C@@](C)(O)C(=O)O)CC[C@H]5O)O4)O3)CC[C@H]2O[C@@H]1[C@@H](O)C[C@H](C)[C@H]1O[C@@]2(CCCCO2)CC[C@H]1C` [okadaic acid, reference compound]: in the test with IRS-2, the “Effect of phosphatase inhibitors on IGFBP-3-induced specific dephosphorylation / mobility change of IRS-2” value is reported as “effectively blocked”.

For the compound `CC(CN1c2ccccc2Sc2ccccc21)N(C)C` (centres unmarked) [promethazine, reference compound], the “Inhibition … to cells” value on acidic pH binding sites [1] is given as “not effective”. The “Degradation of cell surface-bound ^125I-TGF-β1 or ^125I-α2M*” value was “did not exhibit any significant effect” with Mv1Lu cells [2] and “ineffective” in the test with Mv1Lu cells [2] (listed as Promethazine). Besides, the “Inhibition of ^125I-α2M* binding” value at LRP-1 [3] (MEF cells, pH 7.4) was “almost as effective as trifluoperazine and fluphenazine”.

In the case of `[O]=[V]([O-])([O-])[O-]` [vanadale, reference compound], the “Effect of phosphatase inhibitors on IGFBP-3-induced specific dephosphorylation / mobility change of IRS-2” value in the test with IRS-2 is reported as “did not appear to affect”.

Pseudomonas exotoxin: a ligand of LRP-1: the “Inhibition … to cells” value with acidic pH binding sites [4] (0.5 μM, Mv1Lu cells, pH 5 or 6) is “did not effectively inhibit”.

For apoE: human apoE, the “^125I-α2M* binding” value with LRP-1 [5] and with LRP-1 [3] was “did not have a significant effect” in each case. Besides, the “Specific binding of ^125I-α2M*” value in the test with acidic pH binding sites [4], with acidic pH binding sites [1] and with acidic pH binding sites [6] was “completely blocked” in each case.

Take “chondroitin sulfate A [reference compound]”: the “^125I-α2M* binding to LRP-1” value in the test with LRP-1 [5] is “did not significantly affect”. Moreover, on acidic pH binding sites [4] (Mv1Lu cells, pH 5), the “Inhibition of ^125I-α2M* binding” value is recorded as “potent inhibitors”.

As for “chondroitin sulfate B [reference compound]”, the “^125I-α2M* binding to LRP-1” value in the test with LRP-1 [5] was “did not significantly affect”. For the same compound, the “Inhibition of ^125I-α2M* binding” value at acidic pH binding sites [4] (Mv1Lu cells, pH 5) is “potent inhibitors”.

“chondroitin sulfate C [reference compound]”: the “^125I-α2M* binding to LRP-1” value with LRP-1 [5] is reported as “did not significantly affect”. On acidic pH binding sites [4] (Mv1Lu cells, pH 5), the “Inhibition of ^125I-α2M* binding” value is “potent inhibitors”.

As for “cyclo GRGDSPA (cyclic) [cyclic RGD peptide, reference compound]”, the “Effect alone on TGF-β1-induced inhibition of DNA synthesis” value in the test on Mv1Lu cells [7] is recorded as “Neither insulin (10 nM) nor the cyclic RGD peptide (0.01 μg/ml) alone affected”.

Regarding heparin sulfate [reference compound], the “^125I-α2M* binding to LRP-1” value in the test on LRP-1 [5] is reported as “did not significantly affect”. For the same compound, the “Enhancement of ^125I-α2M* binding” value at acidic pH binding sites [4] (1 μg/ml, Mv1Lu cells, pH 5) is recorded as ~400%. Further, the “Inhibition of ^125I-α2M* binding” value at acidic pH binding sites [4] (10 μg/ml, Mv1Lu cells, pH 5) is given as > 80%.

microcystin [reference compound]: the “Effect of phosphatase inhibitors on IGFBP-3-induced specific dephosphorylation / mobility change of IRS-2” value in the test with IRS-2 was “did not appear to affect”.

Regarding “native α2M: human α2-macroglobulin purified from plasma”, the IC50 (usually the concentration at which inhibition is half-maximal) in the test with acidic pH binding sites [6] (PEA-13 cells, acidic pH, read-out: IC50, inhibition of ^125I-α2M* binding) was > 400 nM.

On to transferrin: human transferrin, for which the “^125I-α2M* binding” value in the test with LRP-1 [5] and with LRP-1 [3] was “did not have a significant effect” each time. Besides, the “Specific binding of ^125I-α2M*” value in the test with acidic pH binding sites [4], with acidic pH binding sites [1] and in the test with acidic pH binding sites [6] was “completely blocked” in each case. In the test with acidic pH binding sites [4] (Mv1Lu cells, pH 5 or 6, read-out: IC50, inhibition of ^125I-α2M* binding to cells), the IC50 is ~500 nM.
